In article PMC6886872, “Discovery of a small molecule inhibitor targeting dengue virus NS5 RNA-dependent RNA polymerase” (PLoS Neglected Tropical Diseases, 2019):
Where two headings read alike, the source gives them in different places.

How the values were obtained:
[1] = test system: NS5 proteins from DENV1–4; type: biochemical; conditions: range over NS5 proteins from DENV1–4; read-out: IC50 values, RdRp activities
[2] = test system: DENV2 16681 strain; assay: Cell-based antiviral assay, viral RNA in supernatant of infected Vero cells (RT-qPCR); conditions: Dengue virus, 72 h; DENV2 16681, Vero cells, viral RNA 3 days after infection
Experimental: (§1) The experiments were performed in triplicate.

[3] = test system: DENV3 (H87 strain); assay: as above; conditions: 72 h, viral RNA 3 days after infection
Experimental: as §1

[4] = test system: DENV4 (H241 strain); assay: as above; conditions: 72 h, viral RNA 3 days after infection
Experimental: as §1

[5] = test system: DENV1–4 infections; assay: Cell-based antiviral assay, summary over serotypes; conditions: range over DENV1–4; read-out: EC50 values, antiviral activities
Experimental: as §1

[6] = test system: DENV1 (Mochizuki strain); assay: Cell-based antiviral assay, viral RNA in supernatant of infected Vero cells (RT-qPCR); parameters: species or system Dengue virus serotype 1 (DENV1); conditions: Dengue virus, 72 h, viral RNA 3 days after infection
Experimental: as §1

[7] = biological target: T1, full-length DENV4 NS5 (Dengue virus type 4, UniProt P09866); assay: biochemical; conditions: read-out: IC50 Polymerase assay
T1 construct: full-length NS5 proteins, comprising the N-terminal MTase and the C-terminal RdRp; His-tag (N, cleaved yes); SUMO (N, cleaved yes); made in house; host or cells: E. coli KRX

[8] = test system: recombinant DENV2 (WT, C780A, C780Q NS5); type: cell-based
[9] = test system: Vero cells; assay: Cytotoxicity, WST-1 assay; type: cell-based; conditions: two days culture
Experimental: The cytotoxic activities of the compounds were tested using a WST-1 assay (Roche Diagnostics), according to the manufacturer’s instructions. […] Ten μL of WST-1 solution was added to each well, and the cells were further incubated for 30 min. The absorbance was measured at 450 nm, with subtraction of the nonspecific background at 650 nm.

[10] = test system: DENV2 P04/08 strain; assay: Cell-based antiviral assay, viral RNA in supernatant of infected Vero cells (RT-qPCR); conditions: 72 hours after infection
[11] = biological target: T2, full-length DENV3 NS5 (Dengue virus type 3, UniProt P27915); assay: biochemical
T2 construct: full-length NS5 proteins, comprising the N-terminal MTase and the C-terminal RdRp; His-tag (N, cleaved yes); SUMO (N, cleaved yes); made in house; host or cells: E. coli KRX

Structure (SMILES): CC(=O)Oc1ccc2oc(=O)sc2c1 [RK-0404678, (2-Oxo-1,3-benzoxathiol-5-yl) acetate]
- IC50 [1]: 46.2 to 445 µM
- EC50 [2]: 6 ± 0.3 µM
- EC50 [3]: 29.4 ± 1.8 µM
- EC50 [4]: 31.9 ± 2.8 µM
- EC50 [5]: 6 to 31.9 µM
- EC50 [6]: 29.5 ± 4.2 µM
- IC50 [7]: 445 ± 23 µM
- EC50 ([8]; DENV2 NS5 C780A mutant virus (Site 1)): 3.3 ± 1.1 µM
- EC50 ([8]; DENV2 NS5 C780Q mutant virus (Site 1)): 12.8 ± 2.2 µM
- EC50 ([8]; WT (recombinant) DENV2 virus): 7.1 ± 0.67 µM
- cytotoxicity in Vero cells [9]: marginal cytotoxicity even at the highest concentration (50 μM)
- antiviral effect on DENV2 P04/08 strain compared with 16681 strain [10]: comparable effect
- IC50 [11]: 287 ± 11 µM
